# Experimental data published in ChEMBL document CHEMBL1159222, “Varacin and three new marine antimicrobial polysulfides from the far-eastern ascidian Polycitor sp” (1995).
# Assays:
# Assay type in all cases: functional
# Settings in all cases: read-out: IZ
# Candida albicans [1] = test: Antifungal activity against Candida albicans at 10 ug
# Bacillus subtilis [2] = test: Antibacterial activity against Bacillus subtilis at 1 ug
# Bacillus subtilis [3] = test: Antibacterial activity against Bacillus subtilis at 0.1 ug
# Candida albicans [4] = test: Antifungal activity against Candida albicans at 0.1 ug
SMILES,zone of inhibition at 10 µg/disc (Candida albicans [1]) [mm],zone of inhibition at 1 µg/disc (Bacillus subtilis [2]) [mm],zone of inhibition at 0.1 µg/disc (Bacillus subtilis [3]) [mm],zone of inhibition at 0.1 µg/disc (Candida albicans [4]) [mm]
COc1cc(CCNC(C)=O)c2c(c1OC)SSS2 [VARACIN A ACETATE],20,–,–,–
COc1cc(CCNC(C)=O)c2c(c1OC)SSSSS2 [VARACIN ACETATE],20,–,–,–
COc1cc(CCNC(C)=O)c2c(c1OC)[S+]([O-])SS2 (configuration not stated) [VARACIN B ACETATE],20,–,–,–
COc1cc(CCNC(C)=O)c2c(c1OC)SS[S+]2[O-] (configuration not stated) [VARACIN C ACETATE],20,–,–,–
COc1cc(CCN)c2c(c1OC)SSSSS2 [VARACIN],–,20,20,20
